Assay [1] has as its system Rat tibialis anterior (TA) muscle tissues. As to the kind of experiment: In vitro ischemic tibialis anterior muscle tissue survival (H&E, TUNEL). Format: cell-based, Sprague Dawley rats. The conditions noted are these: 5 mM injected, 3 days incubation. As to the method:
Rat tibialis anterior (TA) muscle tissues were dissected immediately after sacrifice of Sprague Dawley rats (17 weeks old, 380-400 g, Harlan), injected with blank, 5 mM of adenosine or cladribine, and then incubated in 5 mL of complete media for 3 days.
The tissue samples were fixed in 10% neutral buffered formalin (Sigma-Aldrich), 6 μm sections were generated by a cryotome (Leica), and stained with hematoxyline and eosin (H&E) and with TUNEL staining. Microscopic analyses were performed using a light microscope (Zeiss M1) and ImagePro software.

For a further assay, the system named is C2C12 cells. As to the kind of experiment: Myotube formation of hypoxia-survived C2C12 cells. Format: cell-based, murine. The following applies: after 11 days adenosine under hypoxia, 2% horse serum medium 6 days. How it is done: After C2C12 cells that survived the hypoxic stress in the presence of adenosine were transferred to normoxic conditions without further supply of adenosine, they were cultured continuously for 3 days in the growth medium followed by 2% horse serum-containing medium for another 6 days. […] Nuclei were counterstained with DAPI (Vector). Photomicrographs were obtained using a Leica inverted fluorescence microscope. Myotube formation was also observed by Giemsa staining (1:20, Sigma-Aldrich) using a Zeiss upright light microscope.

The subject of the next assay is C2C12 murine myoblasts. As to the kind of experiment: C2C12 cell counts (PicoGreen dsDNA) under 0.1% hypoxia, then normoxia. The assay is classed as cell-based. How it is done:
C2C12 murine myoblasts (ATCC) were cultured in a growth medium containing Dulbecco's modified Eagle's medium (DMEM, Gibco) supplemented with 10% FBS, 500 U/mL penicillin and 500 μg/mL streptomycin.
Hypoxic condition was maintained with a gas mixture containing 0.1% O2, 5% CO2 and 94.9% N2 at 37° C. and full humidity in an X-Vivo System (Biospherix). […] The hypoxic groups were then placed to the hypoxic chamber and incubated up to day 11, whereas the normoxic group continued to be incubated in the regular incubator. No medium change was made on both normoxic and hypoxic groups up to day 11. After transfer to normoxic conditions, cells were cultured in the regular incubator with an exchange of no adenosine-containing, fresh medium every third day.
Cell proliferation of each group was determined by a Quanti-iT PicoGreen dsDNA Kit (Invitrogen). After washed with PBS, cells were lysed with 55 μL of RIPA buffer (Sigma) on ice for 5 min, then the supernatants were mixed with an equal volume of PicoGreen dsDNA quantitation reagent, a fluorescent DNA dye (excitation at 480 nm; emission at 520 nm). The DNA content was quantified using a SpectraMax M5 microplate reader (Molecular Devices). The number of cells was calculated using a standard curve plotted from fluorescent readings of serial dilutions of a known concentration of cells.
Cell viability was visualized using a calcein AM (Invitrogen) where viable cells fluoresce green through the reaction of calcein AM.

SMILES strings stand for the structures.

As for `Nc1ncnc2c1ncn2[C@@H]1O[C@H](CO)[C@@H](O)[C@H]1O` [adenosine], the “number of live nuclei (TUNEL)” value in assay [1] is “slightly increased live nuclei”. Further, the “myotube formation (differentiating capability)” value in the assay on C2C12 cells is reported as “showed capability of forming myotubes”. In addition, in the assay with C2C12 murine myoblasts (0.05 mM adenosine, after 11 days 0.1% hypoxia), the “growth recovery after transfer to normoxic conditions” value is “never recovered even after transfer to normoxic conditions”. For the same molecule, the “number of cells maintained after 11 days of hypoxic stress” value in the assay with C2C12 murine myoblasts (1, 2 and 5 mM adenosine, 0.1% hypoxia, day 11) is listed as “two to four”. For the same molecule, the “proliferation after transfer to normal oxygen tension” value in the assay on C2C12 murine myoblasts (1, 2 and 5 mM adenosine, after 11 days 0.1% hypoxia) was “resumed their proliferation at a growth rate comparable to that in normoxic cells”. Besides, in the assay with C2C12 murine myoblasts (C2C12 survival, 0.1% hypoxia), the “most effective adenosine concentration” value was 5 mM. For the same molecule, the “time for onset of re-proliferation” value in the assay with C2C12 murine myoblasts (after transfer to normoxia, 1, 2, 5 mM) was “concentration-dependent”.

The values above are taken from patent US20150025031A1, “METABOLIC DOWNREGULATION FOR CELL SURVIVAL” (WAKE FOREST UNIVERSITY HEALTH SCIENCES, priority 2012, published 2015).
